In experiment [1] the test system is rat corpus cavernosum strips. Description: Isometric tension of isolated rat corpus cavernosum strips. The conditions noted are these: baseline tension, clozapine 10^-6 M, SCH23390, L-NOARG 10^-4 M, sildenafil 10^-7 M. On the procedure:
For functional studies in corpus cavernosum strips, the penis was removed by cutting the crura corpora cavernosa at the point of adhesion to the lower pubic bone, and the corpora cavernosa were then dissected free. The penis was submerged immediately in ice-cold (4° C.) PSS. The tunica albuginea was carefully opened from its proximal extremity of the corpus cavernosum towards the penile shaft and the erectile tissue within the corpus cavernosum was microsurgically dissected free. Change in isometric tension of corpus cavernosum strips (0.5×0.5×3 mm) were investigated in a tissue organ bath system (750TOBS, Danish Myotechnology, Aarhus, Denmark). Silk ligatures were applied at both ends of the strip preparations, which were then suspended between two L-formed metal prongs in thermostatically controlled organ baths (5 ml, 37° C.) containing PSS aerated with a mixture of 5% CO2 in air (pH 7.4). The bath fluid was routinely changed every 20 min and replaced with fresh PSS, also kept at 37° C. During an equilibration period of 60 min, tension was adjusted until a mean stable tension of 1.2 mN was obtained, as described earlier.
To test the contractility of the preparations, they were exposed to a potassium physiological saline solution (KPSS) of 125 mM and phenylephrine (10^-6 M), after each contraction acetylcholine was administrated to check endothelium-dependent relaxations.
To investigate the effect of IP2015 on corpus cavernosum strips, the drug (10 9-3×10^-4 M) was administered either in preparations at baseline tension or contracted with phenylephrine (10^-6 M) in the absence or presence of L-NOARG (10 4 M), a NO synthase inhibitor, sildenafil (10^-7 M), a PDE5 inhibitor, a dopamine D1 receptor antagonist, SCH23390, and a dopamine D2 receptor antagonist, clozapine (10^-6 M). The effect of vehicle was also investigated.

For experiment [2], the system named is anaesthetized rats. The experiment is described as follows: Intracavernous pressure / spontaneous erections in anaesthetized rats. The conditions noted are these: rats. It counts as in vivo, rat. The protocol: For in vivo erectile physiology studies, rats were anaesthetized with pentobarbital sodium (Sygehus Apoteket, Aarhus, Denmark; 50 mg/kg) given intraperitoneally. During the experiment, the rats breathed spontaneously; the body temperature was monitored continuously and was maintained at 37° C. With a midline incision in the perineum, the base of the penis, enclosed by striated muscles, was exposed. The ischiocavernous muscle covering the crus corpus cavernosum was divided on one side, and entrance to the underlying tunica albuginea was given. A 25-gauge needle attached to a heparinized (100 IE ml-1) polyethylene catheter was inserted into the crus corpus cavernosum to measure intracavernous pressure (ICP). A heparinized polyethylene catheter (PE 50) was introduced into the carotid artery to measure mean arterial pressure (MAP). Continuous direct measurements of MAP and ICP were performed with transducers (Disposable BP Transducer, ADInstruments, UK), and registered and analysed on a computerized data acquisition system (PowerLab, ADInstruments).
A stabilizing period of 20-30 min was allowed before registration of basal ICP and MAP. Through a lower abdominal incision, the cavernous nerve was isolated at the lateral aspect of the prostate, and electrical stimulation was performed with a slender bipolar platinum electrode, which was connected to a S48 stimulator (Grass Instrument Co., Boston, MA, U.S.A.). To measure the maximum amplitude of the erectile response, a first stimulation of the cavernous nerve (square wave pulses of 6 Volts, 10 Hz, 1 ms pulse duration for 30 s) was performed.
IP2015, sildenafil, clozapine or vehicle were administered by injection in the jugular vein in volumes of maximum 200 μl. […] The observation period of spontaneous erection after injection of IP2015 was 30 min. Clozapine (1 mg/kg) or sildenafil (1 mg/kg) were administered 30 or 10 min prior to 1 mg/kg IP2015 injection, respectively. One group was injected with vehicle alone.
To investigate the involvement of proximal neuronal pathways in the effect of IP2015, mechanical denervation was performed. For mechanical denervation the isolated cavernous nerve was cut distal to the major pelvic ganglion. Absence of erectile response to electrical stimulation verified the efficacy of mechanical denervation.

The structures appear in SMILES notation. Entries after “also recorded” stand apart in the source; their conditions may differ.

`N=C(NCCC[C@H](N)C(=O)O)N[N+](=O)[O-]` [L-NOARG, N^G-nitro-L-arginine, reference compound]: the figures for the “effect on IP2015 relaxation of corpus cavernosum strips” value in experiment [1] and in experiment [1] (listed as NG-nitro-L-arginine) were “abolished the relaxant effect of IP2015” and “blunted”, respectively.
On to `CCCc1nn(C)c2c(=O)[nH]c(-c3cc(S(=O)(=O)N4CCN(C)CC4)ccc3OCC)nc12` [sildenafil, reference compound], for which, in experiment [2] (sildenafil 1 mg/kg), the “effect on magnitude of erectile responses induced by IP2015 (0.1 mg/kg)” value is recorded as “an effect on the magnitude of erectile responses”. Moreover, in experiment [2] (sildenafil 1 mg/kg 10 min or clozapine 1 mg/kg 30 min prior to IP2015 i.v.), the “effect on IP2015-induced erectile responses” value is on record as “markedly increased the duration of these responses; also recorded: further enhanced the IP2015 mediated increase in intracavernosal pressure”. In addition, the “effect on IP2015 relaxation of corpus cavernosum strips” value in experiment [1] is recorded as “enhanced relaxation to IP2015”.

Values taken from patent publication US20260216166A1, “COMPOUND FOR TREATMENT OF ERECTILE DYSFUNCTION” (Initiator Pharma A/S, priority 2023, published 2026).
